Results on three compounds are retold here after paper PMC13079396, “Use of a cytochrome P450 humanized mouse model to refine schistosomiasis drug discovery” (Proceedings of the National Academy of Sciences of the …, 2026).

Structures are written as SMILES. Where “and” joins values, the source holds several entries; their conditions need not be identical. Equal entries are not always repeated. Where two headings read alike, the source gives them in different places. Some results are limits rather than exact numbers.

For data set [1], the system named is S. mansoni. The data set can be described thus: PZQ-induced efficacy (worm and egg burden reduction) in S. mansoni infected 8HUM mice. The data set is classed as in vivo, Schistosoma mansoni. The following applies: for worm burden reduction: day 47. The source says:
(§1) Lower […] Analytical acceptance criteria were reported previously (1). […] Reactions were […]

Data set [2] is classed as in vitro ADME. The following applies: mouse, microsomes.
For data set [3], the system named is S. mansoni. The following applies: cited from earlier work.
Data set [4] is classed as in vitro ADME. Conditions: human, microsomes. The protocol:
Supernatants were analysed by LC-MS/MS immediately. […] Chromatographic separation was achieved using a previously described method (2) with minor modifications. […] The flow rate was 1.2 mL/min. […] used. […] Intrinsic clearance determination […] Lower […]

Data set [5] relates to S. mansoni. The data set can be described thus: PZQ-induced efficacy (worm and egg burden reduction) in S. mansoni infected WT mice. The data set is classed as in vivo, Schistosoma mansoni.
Source text: as §1

Data set [6] can be described thus: PK in S. mansoni infected WT mice, oral rac-PZQ. The format is in vivo. Conditions: female, mouse, whole blood, single oral 400 mg/kg rac-PZQ at 41 d postinfection, total blood, n = 3.
Data set [7] in a line: PK in S. mansoni infected 8HUM mice, oral rac-PZQ. The format is in vivo. Conditions: female, mouse, whole blood, total blood, n = 3.
Data set [8] can be described thus: Range-finding PK study, uninfected WT mice, oral rac-PZQ. The following applies: female, WT (wild-type), mouse, whole blood, 400 mg/kg.
Data set [9] is described as follows: Range-finding PK study, uninfected 8HUM mice, oral rac-PZQ. The data set is classed as in vivo, mouse. Conditions: for AUC(0-t) / Cmax: female, mouse, whole blood, uninfected 8HUM mice, single oral 25 mg/kg rac-PZQ, total blood, n = 2. As to the method: Dose formulations were prepared on the day of dosing. […] Supernatants were analysed by LC-MS/MS immediately. […] Chromatographic separation was […] […] […] used. […] Intrinsic clearance determination […] […] Lower […] […] Analytical acceptance criteria were reported previously (1).

[10] abbreviates: single oral 400 mg/kg, day 47, 400 mg/kg.

With `O=C(C1CCCCC1)N1CC(=O)N2CCc3ccccc3C2C1` (racemic) [rac-PZQ, praziquantel], the worm burden reduction was 92% in the data set on S. mansoni [1] (8HUM mice, single oral 100 mg/kg, 100 mg/kg); more than 90% in the data set on S. mansoni [1] (8HUM mice, single oral 100 mg/kg, listed as PZQ, 100 mg/kg); 98% in the data set on S. mansoni [1] (8HUM mice, single oral 200 mg/kg). In addition, the “reductions in worm burdens” value with S. mansoni [1] (8HUM mice, single oral doses of 100 to 200 mg/kg bodyweight) is more than 90%. Moreover, the “increase in efficacy in 8HUM mice vs WT mice at the same dose” value with S. mansoni [1] (single 100 mg/kg oral dose, 8HUM (this study) vs WT (ref 7)) is on record as “approximately twofold”. The results for the “Microsomal CLint” value in data set [2] and in [4] were 2.7 mL/min/g and 3.2 mL/min/g, respectively. In addition, the “drug-induced efficacy (worm burden reduction)” value in the data set with S. mansoni [3] (WT animals, single oral dose of 400 mg/kg rac-PZQ, 400 mg/kg) is ~ 94% and > 90%. Also, the “reduction in worm burden” value with S. mansoni [3] (WT mice, single 100 mg/kg bodyweight oral dose, at most) is not above 53%. Besides, in the data set on S. mansoni [5] (single oral 400 mg/kg at 41 d postinfection, day 47, vs excipient controls), the “reduction in adult worm burdens” value was determined as 93%. Also, the “worm burden reduction, females” value with S. mansoni [5] (setting [10]) was 95%. For the same compound, the “worm burden reduction, males” value with S. mansoni [5] (setting [10]) is 90%.

`O=C(C1CCC(O)CC1)N1CC(=O)N2CCc3ccccc3C2C1` (stereo not drawn) [4OH-PZQ]: the AUC(0-t) (in general, exposure summed from dosing to a finite time, without extrapolation to infinity) in [6] is 197000 ng·h/mL; in data set [7] (single oral 100 mg/kg rac-PZQ), 108000 ng·h/mL; in data set [7] (single oral 200 mg/kg rac-PZQ), 19400 ng·h/mL; in data set [8] it was 98500 ng·h/mL; in [9] it was 19400 ng·h/mL. The Cmax (commonly the peak of the concentration-time curve) in data set [6] amounted to 42600 ng/mL; in data set [7] (single oral 100 mg/kg rac-PZQ), 21700 ng/mL; in data set [7] (single oral 200 mg/kg rac-PZQ), 5360 ng/mL; in [8] it was 27600 ng/mL; in data set [9], 5360 ng/mL. Further, in data set [9] (8HUM 25 mg/kg vs WT 400 mg/kg rac-PZQ, oral, uninfected), the “AUClast and Cmax in 8HUM animals, fold lower compared to WT animals” value is listed as “~ fivefold”.

`O=C(C1CCCCC1)N1CC(=O)N2CCc3ccccc3[C@@H]2C1` [R-PZQ]: the AUC(0-t) came out at 73600 ng·h/mL in data set [6]; 25700 ng·h/mL in data set [7] (single oral 100 mg/kg rac-PZQ); 68300 ng·h/mL in data set [7] (single oral 200 mg/kg rac-PZQ); 12000 ng·h/mL in data set [8]; 2860 ng·h/mL in [9]. Further, the Cmax in data set [6] is 25800 ng/mL; in [7] (single oral 100 mg/kg rac-PZQ), 13200 ng/mL; in data set [7] (single oral 200 mg/kg rac-PZQ), 20800 ng/mL; in data set [8], 7740 ng/mL; in [9], 2210 ng/mL.
